Key:
mMC5R = mMC5R (Mus musculus, UniProt P41149); experiment: AlphaScreen cAMP agonist assay, HEK293 cells stably expressing mMC5R; details: for mMC5R partial agonist efficacy bin: sigmoidal curve, efficacy <90% of NDP-MSH; for fold decreased mMC5R agonist potency: relative to 2718.002
Method: (§1) Pyrrolidine bis-cyclic guanidine compounds were assessed for biological activity using the AlphaScreen cAMP kit with HEK293 cells stably expressing the mMC1R, mMC3R, mMC4R, or mMC5R, as previously described [37, 38, 39]. […] Compounds were assayed for agonist activity in a 7-point dose–response curve (10^−3 to 10^−9 M). […] The purified compounds were dissolved in DMSO at a stock concentration of 10^−1 M and assayed using HEK293 cells stably expressing the mouse MC1R, MC3R, MC4R, and MC5R using the AlphaScreen cAMP bioassay (PerkinElmer, Waltham, MA, USA) according to the manufacturer’s instructions and as previously described [37, 38, 39].
(§2) Briefly, cells 70−90% confluent were dislodged with Versene (Gibco, Waltham, MA, USA) at 37 °C and 10,000 cells/well were plated in a 384-well plate (Optiplate, PerkinElmer, Waltham, MA, USA) with 10 μL of freshly prepared stimulation buffer (1× HBSS, 5 mM HEPES, 0.5 mM IBMX, 0.1% BSA, pH = 7.4) with 0.5 μg of anti-cAMP acceptor beads per well. The cells were stimulated with the addition of 5 μL of stimulation buffer containing compound or forskolin (10^−4 M) and incubated in the dark at room temperature for 2 h. Following stimulation, streptavidin donor beads (0.5 μg) and biotinylated cAMP (0.62 μmol) were added to the wells in a green light environment with 10 μL of lysis buffer (5 mM HEPES, 0.3% Tween-20, 0.1% BSA, pH = 7.4) and the plates were incubated in the dark at room temperature for an additional 2 h. Plates were read on a Enspire (PerkinElmer, Waltham, MA, USA) Alpha plate reader using a pre-normalized assay protocol (set by the manufacturer).

mMC1R = mMC1R (Mus musculus, UniProt Q01727); experiment: AlphaScreen cAMP agonist assay, HEK293 cells stably expressing mMC1R; details: for mMC1R partial agonist efficacy bin: sigmoidal curve, efficacy <90% of NDP-MSH
Method: as §1, §2

mMC3R = mMC3R (Mus musculus, UniProt P33033); experiment: AlphaScreen cAMP agonist assay, HEK293 cells stably expressing mMC3R; details: for mMC3R partial agonist efficacy bin: sigmoidal curve, efficacy <90% of NDP-MSH
Method: as §1, §2

mMC4R = mMC4R (Mus musculus, UniProt P56450); experiment: AlphaScreen cAMP agonist assay, HEK293 cells stably expressing mMC4R; details: for mMC4R percent maximal stimulatory response (compared to NDP-MSH): at 1 mM, not enough stimulation to determine EC50
Method: as §1, §2

[1] = at 1 mM, not enough stimulation to determine EC50

mMC5R, sequence (P41149 whole entry): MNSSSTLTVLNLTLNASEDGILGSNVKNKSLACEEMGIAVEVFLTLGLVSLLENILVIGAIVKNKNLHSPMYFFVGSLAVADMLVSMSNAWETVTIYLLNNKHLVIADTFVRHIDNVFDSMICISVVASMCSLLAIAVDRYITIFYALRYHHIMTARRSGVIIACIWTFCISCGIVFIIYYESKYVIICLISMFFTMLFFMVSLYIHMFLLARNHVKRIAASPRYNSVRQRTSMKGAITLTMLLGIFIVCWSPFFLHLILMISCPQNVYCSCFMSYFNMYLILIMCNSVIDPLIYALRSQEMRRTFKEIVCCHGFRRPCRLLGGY
mMC1R, sequence (Q01727 whole entry): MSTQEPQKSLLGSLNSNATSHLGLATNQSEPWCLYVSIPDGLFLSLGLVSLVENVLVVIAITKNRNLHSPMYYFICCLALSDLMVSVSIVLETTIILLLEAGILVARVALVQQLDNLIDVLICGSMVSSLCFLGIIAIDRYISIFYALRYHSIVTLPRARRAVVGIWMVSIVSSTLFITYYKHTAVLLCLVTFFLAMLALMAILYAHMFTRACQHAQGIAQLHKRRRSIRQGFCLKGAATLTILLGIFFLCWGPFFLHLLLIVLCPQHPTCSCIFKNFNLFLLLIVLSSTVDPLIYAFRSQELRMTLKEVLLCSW
mMC4R, sequence (P56450 whole entry): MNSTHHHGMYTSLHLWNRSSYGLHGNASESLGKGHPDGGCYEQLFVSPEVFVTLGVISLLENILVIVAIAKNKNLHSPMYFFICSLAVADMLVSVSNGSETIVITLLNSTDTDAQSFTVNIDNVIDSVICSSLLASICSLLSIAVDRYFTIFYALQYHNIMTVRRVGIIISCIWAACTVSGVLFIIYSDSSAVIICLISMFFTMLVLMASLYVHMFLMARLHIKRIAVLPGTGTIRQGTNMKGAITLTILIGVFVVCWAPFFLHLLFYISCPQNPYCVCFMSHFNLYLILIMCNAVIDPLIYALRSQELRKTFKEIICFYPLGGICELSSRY
mMC3R, sequence (P33033 whole entry): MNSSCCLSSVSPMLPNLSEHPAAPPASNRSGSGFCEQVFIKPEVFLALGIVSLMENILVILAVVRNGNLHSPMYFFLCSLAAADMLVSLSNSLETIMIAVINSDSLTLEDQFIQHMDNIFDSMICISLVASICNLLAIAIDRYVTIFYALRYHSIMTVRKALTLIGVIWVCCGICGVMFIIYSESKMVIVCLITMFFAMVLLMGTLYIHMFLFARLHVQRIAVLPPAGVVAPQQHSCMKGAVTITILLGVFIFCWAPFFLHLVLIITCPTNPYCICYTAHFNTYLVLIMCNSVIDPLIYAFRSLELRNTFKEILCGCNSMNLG

| SMILES | EC50 (mMC5R) [µM] | EC50 (mMC1R) [µM] | mMC1R partial agonist efficacy bin (mMC1R) | EC50 (mMC3R) [µM] | EC50 (mMC4R) [µM] | mMC5R percent maximal stimulatory response (compared to NDP-MSH) (mMC5R; [1]) [% @ 1 mM] | mMC1R percent maximal stimulatory response (compared to NDP-MSH) (mMC1R; [1]) [% @ 1 mM] | mMC4R percent maximal stimulatory response (compared to NDP-MSH) (mMC4R) [% @ 1 mM] | mMC5R partial agonist efficacy bin (mMC5R) | mMC4R partial agonist efficacy bin (mMC4R; sigmoidal curve, efficacy <90% of NDP-MSH) | mMC3R partial agonist efficacy bin (mMC3R) | fold decreased mMC5R agonist potency (mMC5R) [fold] |
| --- | --- | --- | --- | --- | --- | --- | --- | --- | --- | --- | --- | --- |
| CCN1C(=N)N([C@H](Cc2ccccc2)CN2CCC[C@H]2CN2C(=N)NC[C@H]2CC(C)C)C[C@H]1[C@H](C)O [Compound 2718.004] | > 1000 | 20.6 | A (A (20–50% receptor activation)) | > 1000 | > 1000 |  |  |  |  |  |  |  |
| CC(C)C[C@@H]1CNC(=N)N1C[C@@H]1CCCN1C[C@@H](Cc1ccccc1)N1CCNC1=N [Compound 2718.006] |  |  |  | > 1000 |  | 30 | 40 | 20 |  |  |  |  |
| CCN1C(=N)N([C@H](CC2CCCCC2)CN2CCC[C@H]2CN2C(=N)NC[C@H]2CC(C)C)C[C@H]1[C@H](C)O [Compound 2718.010] | 45.5 | 5 ± 1 | B (B (51–90% receptor activation)) | > 1000 |  |  |  | 20 | A (A (20–50% receptor activation)) |  |  |  |
| CC(C)C[C@@H]1CNC(=N)N1C[C@@H]1CCCN1C[C@@H](CC1CCCCC1)N1C[C@@H]([C@H](C)O)NC1=N [Compound 2718.011] |  | 15 | B (B (51–90% receptor activation)) | > 1000 | > 1000 |  |  |  |  |  |  |  |
| CC(C)C[C@@H]1CNC(=N)N1C[C@@H]1CCCN1C[C@@H](CC1CCCCC1)N1CCNC1=N [Compound 2718.012] |  | 15 | B (B (51–90% receptor activation)) | > 1000 | > 1000 |  |  |  |  |  |  |  |
| CC(C)[C@@H]1CNC(=N)N1C[C@@H]1CCCN1C[C@@H](CC1CCCCC1)N1CCNC1=N [Compound 2718.016] |  | 30 | B (B (51–90% receptor activation)) | > 1000 |  |  |  |  |  |  |  |  |
| CC(C)C[C@@H]1CNC(=N)N1C[C@H]1CCCN1C[C@@H](CC1CCCCC1)N1C[C@@H]([C@H](C)O)N(CC2CCC(C(C)(C)C)CC2)C1=N (stereo partly shown) [Compound 2718.047] | 0.45 ± 0.03 | 0.87 ± 0.07 |  |  | 3.1 ± 0.2 |  |  |  |  | B (B (51–90% receptor activation)) |  |  |
| CC(C)C[C@H]1CNC(=N)N1C[C@@H]1CCCN1C[C@@H](CC1CCCCC1)N1C[C@@H]([C@H](C)O)N(CC2CCC(C(C)(C)C)CC2)C1=N (stereo partly shown) [Compound 2718.048] | 0.65 ± 0.08 | 0.39 ± 0.03 |  | 2.9 ± 0.2 |  |  |  |  |  |  | B (B (51–90% receptor activation)) |  |
| CC(C)C[C@H]1CNC(=N)N1C[C@H]1CCCN1C[C@H](CC1CCCCC1)N1C[C@H]([C@@H](C)O)N(CC2CCC(C(C)(C)C)CC2)C1=N (stereo partly shown) [Compound 2718.049] | 2.8 ± 0.1 | 8 ± 2 | B (B (51–90% receptor activation)) |  |  |  |  |  |  |  |  | 10 |
| CC(C)CC1CNC(=N)N1CC1CCCN1CC(Cc1ccc2ccccc2c1)N1CC(C(C)O)N(CC2CCC(C(C)(C)C)CC2)C1=N (stereo not shown) [Compound 2718.055] | 8 ± 2 | 1 ± 0.2 |  | 7 ± 3 |  |  |  |  |  |  | B (B (51–90% receptor activation)) |  |
| CC(C)CC1CNC(=N)N1CC1CCCN1CC(Cc1c[nH]c2ccccc12)N1CC(C(C)O)N(CC2CCC(C(C)(C)C)CC2)C1=N (stereo not shown) [Compound 2718.056] | 14 | 6 ± 3 | B (B (51–90% receptor activation)) |  |  |  |  |  |  |  |  | 50 |
| CC(C)CC1CNC(=N)N1CC1CCCN1CC(Cc1ccc(O)cc1)N1CC(C(C)O)N(CC2CCC(C(C)(C)C)CC2)C1=N (stereo not shown) [Compound 2718.057] | 6 ± 2 | 0.5 ± 0.1 |  | 11 |  |  |  |  | B (B (51–90% receptor activation)) |  | B (B (51–90% receptor activation)) |  |
| CC(C)CC1CNC(=N)N1CC1CCCN1CC(C1CCCCC1)N1CC(C(C)O)N(CC2CCC(C(C)(C)C)CC2)C1=N (stereo not shown) [Compound 2718.059] | 6 ± 1 |  |  | 11 |  |  |  |  |  |  | A (A (20–50% receptor activation)) | 20 |

Source: PMC10299128, “The Parallel Structure–Activity Relationship Screening of Three Compounds Identifies the Common Agonist Pharmacophore of Pyrrolidine Bis-Cyclic Guanidine Melanocortin-3 Receptor (MC3R) Small-Molecule Ligands” (International Journal of Molecular Sciences, 2023)
